This note sets out measurements from ChEMBL document CHEMBL1201862, “PubChem BioAssay data set” (2004).

The target of one data set is Cytochrome P450 2C9 (Homo sapiens, UniProt P11712).
The next data set concerns the target Cytochrome P450 2C19 (Homo sapiens, UniProt P33261). Description: Cytochrome panel assay with activity outcomes. Panel member name: p450-cyp2c19 Compounds with AC50 equal or less than 10 uM are considered active. Format: functional.
Data set [1] addresses T1, Corticotropin-releasing factor receptor 2/Corticotropin-releasing factor-binding protein (Homo sapiens, UniProt P24387+Q13324).
T1 sequence (Q13324 whole entry): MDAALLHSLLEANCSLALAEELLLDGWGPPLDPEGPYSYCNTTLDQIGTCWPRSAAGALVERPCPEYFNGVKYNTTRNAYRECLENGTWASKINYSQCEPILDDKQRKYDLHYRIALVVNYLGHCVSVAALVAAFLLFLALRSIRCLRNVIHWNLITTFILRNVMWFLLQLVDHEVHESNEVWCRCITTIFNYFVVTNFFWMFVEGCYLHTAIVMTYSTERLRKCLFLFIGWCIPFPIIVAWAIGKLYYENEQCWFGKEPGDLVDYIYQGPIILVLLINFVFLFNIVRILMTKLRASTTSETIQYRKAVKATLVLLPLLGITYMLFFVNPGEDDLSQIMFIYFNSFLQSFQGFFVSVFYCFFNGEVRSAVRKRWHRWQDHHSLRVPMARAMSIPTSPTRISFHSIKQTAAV
T1 sequence (P24387 whole entry): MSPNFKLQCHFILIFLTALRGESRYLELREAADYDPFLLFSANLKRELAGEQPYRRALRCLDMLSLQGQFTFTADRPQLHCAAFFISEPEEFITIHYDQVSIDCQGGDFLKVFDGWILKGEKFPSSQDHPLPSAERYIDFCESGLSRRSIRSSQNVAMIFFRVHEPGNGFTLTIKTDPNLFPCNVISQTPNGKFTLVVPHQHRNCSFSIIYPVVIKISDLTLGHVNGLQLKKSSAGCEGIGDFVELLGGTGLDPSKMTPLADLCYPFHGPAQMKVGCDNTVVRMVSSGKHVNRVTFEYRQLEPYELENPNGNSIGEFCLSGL
Description: activators of CRF receptor 2 with binding protein – uHTS hits, confirmation (AID 602473). Format: functional. The following applies: read-out: EC50_Mean.

For data set [2], the system named is Streptococcus sp. 'group A'. In words: Streptococcus pyogenes SK(-)GAS viability under kanamycin – luminescence, BacTiterGlo, confirmation, counter-screen for streptokinase expression inhibitor project, dose response (AID 1900). Format: functional, organism-based. (In general: A counterscreen serves to expose hits that act by an unwanted route or on another target.)

Another data set has as its target T2, Streptokinase A (Streptococcus pyogenes serotype M1, UniProt P10520).
T2 sequence (P10520 whole entry): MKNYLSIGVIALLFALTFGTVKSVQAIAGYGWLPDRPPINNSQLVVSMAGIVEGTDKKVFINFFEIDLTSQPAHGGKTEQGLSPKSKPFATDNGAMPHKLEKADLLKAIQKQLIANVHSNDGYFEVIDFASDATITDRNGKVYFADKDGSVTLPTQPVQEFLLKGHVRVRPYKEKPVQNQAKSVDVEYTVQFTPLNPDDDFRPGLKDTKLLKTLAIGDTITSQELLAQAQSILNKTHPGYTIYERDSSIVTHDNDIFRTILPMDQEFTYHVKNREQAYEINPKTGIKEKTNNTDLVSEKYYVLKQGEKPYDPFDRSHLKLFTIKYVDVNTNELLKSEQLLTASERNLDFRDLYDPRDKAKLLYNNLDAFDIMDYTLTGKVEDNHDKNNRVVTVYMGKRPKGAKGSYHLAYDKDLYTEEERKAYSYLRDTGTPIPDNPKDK
Description: viability-normalized secreted streptokinase activity reduction – plasminogen activation absorbance, OD405, dose response (AID 1914).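 Also: secreted streptokinase activity via plasminogen activation per viability signal from cell pellet.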 The data set is classed as functional, Streptococcus pyogenes M1 GAS.

For the next data set, the system named is Streptococcus. Description: GAS UMAA2166 growth inhibition – luminescence, BacTiterGlo, counter-screen for streptokinase expression inhibitor project, dose response (AID 1915).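 Also: potency for reduction of bacterial viability or growth.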 Format: functional, organism-based.
In another data set the target is Cytochrome P450 3A4 (Homo sapiens, UniProt P08684).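 Also: CYP3A4 tested as one member of a cytochrome P450 panel screen.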
Chain of Cytochrome P450 3A4 (P08684 whole entry): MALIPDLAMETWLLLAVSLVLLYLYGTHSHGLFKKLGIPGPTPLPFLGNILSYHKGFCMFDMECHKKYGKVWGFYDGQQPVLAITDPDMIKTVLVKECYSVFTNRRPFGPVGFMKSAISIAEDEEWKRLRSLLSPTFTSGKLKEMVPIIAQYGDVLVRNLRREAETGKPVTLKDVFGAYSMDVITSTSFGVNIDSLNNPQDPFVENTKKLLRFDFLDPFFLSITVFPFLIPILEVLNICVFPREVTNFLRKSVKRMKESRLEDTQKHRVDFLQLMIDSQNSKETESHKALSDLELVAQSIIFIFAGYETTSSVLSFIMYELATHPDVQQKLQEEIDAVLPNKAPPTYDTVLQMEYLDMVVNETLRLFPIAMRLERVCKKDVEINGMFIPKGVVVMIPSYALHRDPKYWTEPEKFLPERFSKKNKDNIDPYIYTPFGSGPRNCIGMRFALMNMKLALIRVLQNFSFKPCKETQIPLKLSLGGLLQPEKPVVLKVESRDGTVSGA
Data set [3] in a line: Luminescence Cell-Based Dose Retest to Confirm Inhibitors of Cancer Stem Cells. [Related pubchem assays (depositor defined):AID2717, AID2721]. The following applies: Homo sapiens. The data set is classed as functional.
Data set [4] is described as follows: Trypanosoma cruzi growth suppression in host cells – NIH3T3 host cells, beta-gal luminescence, confirmation (AID 2044).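 Also: intracellular parasites grown in NIH/3T3 mouse fibroblasts as host cells; luminescent beta-galactosidase reporter signal from transgenic T. cruzi replicating inside host cells; inhibitors lower the luminescence signal.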 Format: functional, cell-based.
Data set [5] can be described thus: NIH3T3 cell viability loss – ATP luminescence, mouse fibroblasts, counter-screen, dose response (AID 2010).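 Also: cells exposed to compound for about 90 hours before reading.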 Format: functional, cell-based.

The source made the active and inactive calls.

Chain of Cytochrome P450 2C9 (P11712 whole entry): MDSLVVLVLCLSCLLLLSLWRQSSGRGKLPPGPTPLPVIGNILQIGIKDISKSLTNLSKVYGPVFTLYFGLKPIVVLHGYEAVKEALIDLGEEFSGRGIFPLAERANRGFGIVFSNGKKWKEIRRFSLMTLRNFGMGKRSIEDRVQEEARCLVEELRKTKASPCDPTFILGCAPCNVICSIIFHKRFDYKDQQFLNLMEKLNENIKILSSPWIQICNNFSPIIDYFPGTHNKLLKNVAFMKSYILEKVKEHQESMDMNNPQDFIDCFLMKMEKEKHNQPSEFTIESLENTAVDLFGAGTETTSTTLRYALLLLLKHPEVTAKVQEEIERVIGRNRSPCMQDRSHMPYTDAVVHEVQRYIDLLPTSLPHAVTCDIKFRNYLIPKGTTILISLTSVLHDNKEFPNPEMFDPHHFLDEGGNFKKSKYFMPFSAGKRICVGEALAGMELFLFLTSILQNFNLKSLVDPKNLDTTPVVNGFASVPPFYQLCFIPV
Chain of Cytochrome P450 2C19 (P33261 whole entry): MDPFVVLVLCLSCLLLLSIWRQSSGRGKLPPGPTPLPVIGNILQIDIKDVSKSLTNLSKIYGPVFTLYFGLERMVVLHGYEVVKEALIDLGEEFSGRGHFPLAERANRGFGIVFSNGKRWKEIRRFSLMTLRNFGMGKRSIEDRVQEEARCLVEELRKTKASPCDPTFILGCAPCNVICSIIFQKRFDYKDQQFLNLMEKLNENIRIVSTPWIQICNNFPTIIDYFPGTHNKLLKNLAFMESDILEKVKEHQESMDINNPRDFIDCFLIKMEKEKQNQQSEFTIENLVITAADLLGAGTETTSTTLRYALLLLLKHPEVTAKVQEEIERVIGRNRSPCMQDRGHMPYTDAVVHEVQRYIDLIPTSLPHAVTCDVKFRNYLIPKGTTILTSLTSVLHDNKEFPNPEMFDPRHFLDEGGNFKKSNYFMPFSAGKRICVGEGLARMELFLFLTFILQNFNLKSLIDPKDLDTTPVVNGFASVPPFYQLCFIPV

As a reminder, the AC50 is the concentration at which the activity in the assay is half-maximal. Take `CS(=O)(=O)Nc1ccc(Cc2noc(-c3ccc4[nH]cc(CCN)c4c3)n2)cc1` [L-694247]: the half-maximal activity concentration (AC50) at Cytochrome P450 2C9 is 31.6 µM (inconclusive).

Turning to `COC(=O)c1ccccc1OCC(=O)N1CCN(c2ccc(OC)cc2)CC1`, at Cytochrome P450 2C9, the half-maximal activity concentration (AC50) was 17.8 µM (inconclusive).

Take `CC(C)(C)C1CCc2c(C(=O)N/N=C/c3cccs3)csc2C1` (configuration not stated): at Cytochrome P450 2C9, the AC50 is 7.94 µM (inconclusive).

Take `CS(=O)(=O)Nc1cccc(-c2ccc3ncnc(NC4CC4)c3c2)c1`: at Cytochrome P450 2C19, the AC50 result was “inconclusive”.

Turning to `O=C(COc1ccc([N+](=O)[O-])cc1)NCc1ccccc1`, the AC50 at Cytochrome P450 2C19 (read-out: AC50) was 7.94 µM (inconclusive); at Cytochrome P450 2C9, 17.8 µM (inconclusive).

Consider `CCC(C(=O)Nc1ccc(C(C)C)cc1)c1ccccc1` (configuration not stated), for which the EC50 in data set [1] is 6.87 µM (active).

Take `Cc1ccsc1C1C=C(c2cccc(Br)c2)Nc2ncnn21` (configuration not stated): the figures for the EC50 (in data set [2]; at Streptokinase A; in the data set on Streptococcus) were 7.49 µM (active), > 150 µM (not active) and > 150 µM (not active), respectively.

For the compound `C[C@H]1C2=C3C(CC[C@H]4C(OCc5ccc(F)cc5C(F)(F)F)OC[C@](C)([C@@H]34)N(C(=O)OC(C)(C)C)C2)C(CO)C1CO` (some centres not stated), the AC50 at Cytochrome P450 2C19 (read-out: AC50) and at Cytochrome P450 2C9 was 39.8 µM (inconclusive) each time.

Consider `Cc1nn(CC(=O)Nc2c(F)c(F)cc(F)c2F)c(=O)c2cccn12`, for which the EC50 (in [2]; on Streptokinase A; with Streptococcus) was > 150 µM (not active) in each case.

On to `O=c1cnc2cncnc2n1Cc1ccc(F)cc1`, for which the concentration at half-maximal activity (AC50) is 39.8 µM (inconclusive) at Cytochrome P450 2C19 (read-out: AC50) and 20 µM (inconclusive) at Cytochrome P450 3A4.

In the case of `O=C(CN1CCCC1)Nc1ccc(NC(=O)Nc2ccccc2)cc1`, the EC50 (in [2]; on Streptokinase A; with Streptococcus) was > 150 µM (not active) in each case.

For the compound `COc1ccc(CN2CCc3ccc(NC(=O)c4ccncc4)cc3C2)c(F)c1`, the EC50 (in [2]; on Streptokinase A; in the data set on Streptococcus) was > 150 µM (not active) each time.

As to `O=C(O)C1CCCN1C(=O)OCc1ccccc1` (configuration not stated), the AC50 at Cytochrome P450 2C19 (read-out: AC50) is 15.8 µM (inconclusive).

On to `O=C(/C=C/c1ccccc1)NCCc1ccccc1`, for which the EC50 was > 150 µM (not active) in [2], 48.7 µM (active) at Streptokinase A and > 150 µM (not active) in the data set on Streptococcus.

Take `Cc1cc(C)c2c(C(C)(C)C)nn(-c3ccccc3)c2n1`: the EC50 in data set [2] was 15.1 µM (active); on Streptokinase A, 30.2 µM (active); with Streptococcus, 15.7 µM (active).

For `COc1ccc2oc(-c3ccc(C)c(NC(=O)c4ccc(N5CCOCC5)c([N+](=O)[O-])c4)c3)nc2c1`, the concentration at half-maximal activity (AC50) was 5.62 µM (inconclusive) on Cytochrome P450 2C19 (read-out: AC50) and 3.16 µM (inconclusive) on Cytochrome P450 2C9.

Consider `COCCn1c(=O)c(-c2ccc(F)cc2)nc2cnc(Oc3ccccc3)nc21`, for which the AC50 was 15.8 µM (inconclusive) at Cytochrome P450 3A4 and 10 µM (inconclusive) on Cytochrome P450 2C9.

For `CC(C)Oc1ccc(C(=O)Nc2nnc(C3=COCCO3)o2)cc1`, the figures for the EC50 (in data set [2]; on Streptokinase A; in the data set with Streptococcus) were 0.766 µM (active), > 150 µM (not active) and 14.8 µM (active), respectively.

For `CCOC(=O)c1c(C)n(C)c2ccc(OC(=O)c3ccco3)cc12`, the AC50 on Cytochrome P450 2C9 was 1.12 µM (inconclusive).

Regarding `O=C1C[C@H](c2ccccc2)[C@@H](c2ccc(Br)cc2)O1`, at Cytochrome P450 2C9, the concentration at half-maximal activity (AC50) was 3.16 µM (inconclusive).

On to `O=C(CN1c2ccccc2Sc2ccccc21)NNC(=O)Nc1ccc(Cl)c(Cl)c1`, for which the EC50 in data set [2] is 2.45 µM (active); at Streptokinase A, > 150 µM (not active); in the data set with Streptococcus, 5.49 µM (active). In data set [3], the AC50 was 3.05 µM (active).

Regarding `COC(=O)c1ccc(C(=O)OC)c(NC(=O)CN(C)Cc2cccc(Cl)c2Cl)c1`, the values for the EC50 (in data set [2]; at Streptokinase A; with Streptococcus) were 11.2 µM (active), 13.9 µM (active) and > 150 µM (not active), respectively.

With `O=C(O)c1ccccc1C(=O)NCc1ccc(F)cc1`, the AC50 at Cytochrome P450 2C19 (read-out: AC50) is 28.2 µM (inconclusive).

As to `Cc1nnc(SCC2=C(C(=O)O)N3C(=O)C(NC(=O)c4cc(F)c(F)cc4Cl)C3SC2)s1` (configuration not stated), the EC50 is 0.515 µM (active) in [2], > 150 µM (not active) on Streptokinase A and 0.815 µM (active) in the data set on Streptococcus.

In the case of `Cc1cc(S(=O)(=O)c2cc3ccc(O)c(C)c3oc2=O)ccc1F`, in [1], the EC50 is 5.8 µM (active).

With `CC(=O)Nc1cccc(C(=O)OCc2ccc(C(=O)Oc3ccc(Cl)cc3)cc2)c1`, the AC50 at Cytochrome P450 2C9 is 1.12 µM (inconclusive).

With `CCN1CN=C(S)N(c2cc(C)ccc2C)C1`, the AC50 is 39.8 µM (inconclusive) on Cytochrome P450 2C19 (read-out: AC50) and 20 µM (inconclusive) at Cytochrome P450 3A4.

With `CC(C)(C)C(=O)Nc1cccc(-c2nc3ccccc3c(=O)o2)c1`, the results for the half-maximal activity concentration (AC50) on Cytochrome P450 2C19 (read-out: AC50) and at Cytochrome P450 3A4 were 35.5 µM (inconclusive) and 25.1 µM (inconclusive), respectively.

`COc1ccc(C)cc1NC(=O)CNC(c1ccccc1)c1ccccc1`: the EC50 in data set [2] is 28.9 µM (active); on Streptokinase A it was > 150 µM (not active); with Streptococcus, 96.1 µM (active).

As to `CC(C)NC[C@@H](O)c1ccc(O)c2ncccc12`, the AC50 result on Cytochrome P450 2C19 was “inconclusive”.

Take `O=C(/C=C/c1ccccc1)NC(NC(=S)Nc1cccc(Cl)c1)C(Cl)(Cl)Cl` (configuration not stated): the EC50 in [2] was 3.62 µM (active); at Streptokinase A, > 150 µM (not active); in [4], 1.68 µM (active); in data set [5], > 60 µM (inconclusive); in the data set on Streptococcus it was 6.3 µM (active).

Turning to `O=S1(=O)[C@@H](c2ccccc2)[C@H](N2CCCCC2)[C@H]1[C@H]1C[C@H]2c3ccccc3[C@@H]1c1ccccc12`, the AC50 on Cytochrome P450 2C9 was 7.94 µM (inconclusive).

`Cc1cc(=O)oc2c3c(cc(OCC(=O)NC4CC4)c12)OC(C)(C)CC3`: the EC50 (in data set [2]; on Streptokinase A; in the data set on Streptococcus) was > 150 µM (not active) throughout.

For the compound `CCOc1ccc(-c2nnc3ccc(SC(C)C)nn23)cc1`, the EC50 in data set [2] was 2.79 µM (active); at Streptokinase A it was > 150 µM (not active); in the data set on Streptococcus, 22.9 µM (active).

As for `O=c1c(-c2ccc(F)c(F)c2)nc2cncnc2n1-c1ccccc1`, the figures for the AC50 at Cytochrome P450 3A4 and at Cytochrome P450 2C9 were 20 µM (inconclusive) and 15.8 µM (inconclusive), respectively.

In the case of `C=CCNC(=O)CC(=O)N/N=C/c1cccc(Br)c1`, on Cytochrome P450 2C19 (read-out: AC50), the AC50 is 0.2 µM (inconclusive).

As for `COC(=O)c1[nH]c(C)c(C(=O)C2=C(O)C(=O)N(CCN(C)C)C2c2cccs2)c1C` (configuration not stated), at Cytochrome P450 2C19 (read-out: AC50), the AC50 is 14.1 µM (inconclusive).

As for `O=C(Nc1cccnc1)c1ccc2snnc2c1`, the half-maximal activity concentration (AC50) on Cytochrome P450 2C19 (read-out: AC50) is 17.8 µM (inconclusive); on Cytochrome P450 2C9, 25.1 µM (inconclusive).

`Cn1c(SCC(=O)NC2CC2)nnc1-c1cccc(NC(=O)c2ccccc2F)c1`: the concentration at half-maximal activity (AC50) at Cytochrome P450 2C9 was 17.8 µM (inconclusive).

Consider `CCC1(C)Cc2ccccc2-c2nc(-c3ccccc3)oc(=O)c21` (configuration not stated), for which the EC50 was 14 µM (active) in [2], 13.2 µM (active) on Streptokinase A and > 150 µM (not active) in the data set with Streptococcus.
